Reference: publication PMC5362036, “Cohesive Properties of the Caulobacter crescentus Holdfast Adhesin Are Regulated by a Novel c-di-GMP Effector Protein” (mBio, 2017)

How the values were obtained:
Assay type in all cases: binding
[1] = molecular target: T1, HfsK (CC3689) (Caulobacter vibrioides, UniProt Q9A277, R112A); assay: UV cross-linking with […]c-di-GMP; conditions: StrepII-tagged, 1 uM protein; labelled compound
T1 construct: gene CC_3689; full length; His-tagged (ITC) or StrepII-tagged (mutants, UV cross-linking), expressed in E. coli; tags kept as far as told

[2] = molecular target: T2, HfsK (CC3689) (Caulobacter vibrioides, UniProt Q9A277, R240A); assay: UV cross-linking with […]c-di-GMP; conditions: StrepII-tagged, 1 uM protein; labelled compound
T2 construct: gene CC_3689; full length; His-tagged (ITC) or StrepII-tagged (mutants, UV cross-linking), expressed in E. coli; tags kept as far as told

[3] = molecular target: T3, HfsK (CC3689) (Caulobacter vibrioides, UniProt Q9A277); assay: isothermal titration calorimetry
T3 construct: gene CC_3689; full length; His-tagged (ITC) or StrepII-tagged (mutants, UV cross-linking), expressed in E. coli; tags kept as far as told
Text: isothermal titration calorimetry on HfsK (CC3689) | His-CC3689 bound c-di-GMP in a concentration-dependent manner with an equilibrium disassociation constant (Kd)

[4] = molecular target: T4, HfsK (CC3689) (Caulobacter vibrioides, UniProt Q9A277, R267A); assay: UV cross-linking with […]c-di-GMP; conditions: StrepII-tagged, 1 uM protein; labelled compound
T4 construct: gene CC_3689; full length; His-tagged (ITC) or StrepII-tagged (mutants, UV cross-linking), expressed in E. coli; tags kept as far as told

[5] = molecular target: T5, HfsK (CC3689) (Caulobacter vibrioides, UniProt Q9A277, R102A); assay: UV cross-linking with […]c-di-GMP; conditions: StrepII-tagged, 1 uM protein; labelled compound
T5 construct: gene CC_3689; full length; His-tagged (ITC) or StrepII-tagged (mutants, UV cross-linking), expressed in E. coli; tags kept as far as told

[6] = molecular target: T6, HfsK (CC3689) (Caulobacter vibrioides, UniProt Q9A277, R151A); assay: UV cross-linking with […]c-di-GMP; conditions: StrepII-tagged, 1 uM protein; labelled compound
T6 construct: gene CC_3689; full length; His-tagged (ITC) or StrepII-tagged (mutants, UV cross-linking), expressed in E. coli; tags kept as far as told
T6 sequence (Q9A277 entry or part of it R151A): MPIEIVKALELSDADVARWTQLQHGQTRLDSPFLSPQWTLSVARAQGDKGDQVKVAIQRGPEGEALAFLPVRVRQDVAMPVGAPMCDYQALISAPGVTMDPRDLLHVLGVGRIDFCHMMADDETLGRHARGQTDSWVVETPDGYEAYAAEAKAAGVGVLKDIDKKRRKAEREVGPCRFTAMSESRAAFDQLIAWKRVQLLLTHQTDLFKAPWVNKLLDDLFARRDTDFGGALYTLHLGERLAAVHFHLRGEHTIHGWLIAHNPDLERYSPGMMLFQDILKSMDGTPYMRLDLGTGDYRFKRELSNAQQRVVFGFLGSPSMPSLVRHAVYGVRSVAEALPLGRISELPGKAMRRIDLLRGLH

T4 sequence (Q9A277 entry or part of it R267A): as the sequence (Q9A277 entry or part of it R151A) above, with A151R, R267A counted along it
T2 sequence (Q9A277 entry or part of it R240A): as the sequence (Q9A277 entry or part of it R151A) above, with A151R, R240A counted along it
T5 sequence (Q9A277 entry or part of it R102A): as the sequence (Q9A277 entry or part of it R151A) above, with R102A, A151R counted along it
T3 sequence (Q9A277 entry or part of it): as the sequence (Q9A277 entry or part of it R151A) above, with A151R counted along it
T1 sequence (Q9A277 entry or part of it R112A): as the sequence (Q9A277 entry or part of it R151A) above, with R112A, A151R counted along it

Kd [3]: 724 nM
Compound: Nc1nc2c(ncn2[C@@H]2O[C@@H]3COP(=O)(O)O[C@H]4[C@@H](O)[C@H](n5cnc6c(=O)[nH]c(N)nc65)O[C@@H]4COP(=O)(O)O[C@H]3[C@H]2O)c(=O)[nH]1 [c-di-GMP]
UV cross-linking with [33P]c-di-GMP [1]: HfsKR112a as the only mutant variant with reduced binding affinity for c-di-GMP | UV cross-linking with [33P]c-di-GMP [2]: residues of HfsK (R102, R112, R151, R240, and R267) were replaced with alanine | UV cross-linking with [33P]c-di-GMP [4]: residues of HfsK (R102, R112, R151, R240, and R267) were replaced with alanine | UV cross-linking with [33P]c-di-GMP [5]: residues of HfsK (R102, R112, R151, R240, and R267) were replaced with alanine | UV cross-linking with [33P]c-di-GMP [6]: residues of HfsK (R102, R112, R151, R240, and R267) were replaced with alanine
